The values below come from ChEMBL document CHEMBL1121680, “2,4-Diamino-5-benzylpyrimidines and analogues as antibacterial agents. 5. 3',5'-Dimethoxy-4'-substituted-benzyl analogues of trimethoprim” (J Med Chem, 1981).

Assay [1] has as its target T1, Dihydrofolate reductase (Rattus norvegicus, UniProt Q920D2).
T1 sequence (Q920D2 whole entry): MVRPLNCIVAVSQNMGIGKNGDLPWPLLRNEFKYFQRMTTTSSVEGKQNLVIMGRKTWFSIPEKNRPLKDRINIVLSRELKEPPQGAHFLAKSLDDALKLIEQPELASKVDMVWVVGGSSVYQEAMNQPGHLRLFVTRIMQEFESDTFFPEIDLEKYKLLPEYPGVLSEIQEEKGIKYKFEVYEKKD
Put plainly: Inhibition of rat liver Dihydrofolate reductase. The conditions noted are these: read-out: I50.

Assay [2] concerns the target T2, Dihydrofolate reductase (Rattus norvegicus) (UniProt Q920D2).
T2 sequence (whole entry): T1 sequence (Q920D2 whole entry)
As to the kind of experiment: Compound was tested for inhibitory activity against Dihydrofolate reductase of rat liver at 29000 M.

For assay [3], the target named is T2, Dihydrofolate reductase (Rattus norvegicus). As to the kind of experiment: Compound was tested for inhibitory activity against Dihydrofolate reductase of rat liver at 40000 M.
The target is the same in assay [4]. Put plainly: Percent inhibition of compound against Dihydrofolate Reductase of rat liver at 16000 M.
Assay [5] has the same target. As to the kind of experiment: Compound was tested for inhibitory activity against Dihydrofolate reductase of rat liver at 1000 µM. The conditions noted are these: 1000 M.
The species entered for assay [6] is Mus musculus. The conditions noted are these: Serum.
The next assay has as its system Oryctolagus cuniculus. As to the kind of experiment: Peak serum concentration reached within 1 hr of administration of 5 mg/kg oral dose. Set-up: dose 5 mg/kg. Type of assay: functional, organism-based.
Assay [7] is filed under the species Mus musculus. The conditions noted are these: Serum. This is another data set of the same source.
For assay [8], the target named is T2, Dihydrofolate reductase (Rattus norvegicus). As to the kind of experiment: Compound was tested for inhibitory activity against Dihydrofolate reductase of rat liver at 2400 M.
Assay [9] concerns the target T1, Dihydrofolate reductase. As to the kind of experiment: Compound was tested for inhibitory activity against Dihydrofolate Reductase of rat liver. The conditions noted are these: read-out: I50.

Regarding `COc1cc(Cc2cnc(N)nc2N)cc(OC)c1OCCN1CCOCC1`, on Dihydrofolate reductase [1], the IC50 is greater than 440 µM.
In the case of `COc1cc(Cc2cnc(N)nc2N)cc(OC)c1Oc1ccc(NC(=O)CBr)cc1`, the inhibition (usually how much of the control response was suppressed) in assay [2] was 37%.
For the compound `COc1cc(Cc2cnc(N)nc2N)cc(OC)c1Oc1ccc([N+](=O)[O-])cc1`, at Dihydrofolate reductase [1], the IC50 stood at 50 µM.
Turning to `COc1cc(Cc2cnc(N)nc2N)cc(OC)c1OCCO`, the IC50 at Dihydrofolate reductase [1] was greater than 400 µM.
`COc1cc(Cc2cnc(N)nc2N)cc(OC)c1OCCCN1CCCCC1`: in [3], the inhibition worked out at 20%.
Turning to `COc1cc(Cc2cnc(N)nc2N)cc(OC)c1OCCCCCCN`, the IC50 at Dihydrofolate reductase [1] was 560 µM.
For the compound `COc1cc(Cc2cnc(N)nc2N)cc(OC)c1OCCCN1C(=O)c2ccccc2C1=O`, the IC50 at Dihydrofolate reductase [1] was 69 µM.
As to `COc1cc(Cc2cnc(N)nc2N)cc(OC)c1OCc1ccccc1`, the IC50 at Dihydrofolate reductase [1] was 47 µM.
The same measure, in the same setting: to `CCc1c(OC)cc(Cc2cnc(N)nc2N)cc1OC` belongs 200 µM.
In the case of `COc1cc(Cc2cnc(N)nc2N)cc(OC)c1OCCCN1CCN(C)CC1`, the inhibition in assay [3] worked out at 36%.
With `CCCCCCOc1c(OC)cc(Cc2cnc(N)nc2N)cc1OC`, on Dihydrofolate reductase [1], the IC50 came out at 200 µM.
Take `COc1cc(Cc2cnc(N)nc2N)cc(OC)c1OCC1CO1` (stereo not given): the inhibition in assay [4] is 23%.
As to `COc1cc(Cc2cnc(N)nc2N)cc(OC)c1Oc1ccc(N)cc1`, the inhibition in [5] was found to be 8%.
With `COc1cc(Cc2cnc(N)nc2N)cc(OC)c1OC`, the T1/2 in the assay filed under Mus musculus [6] was 45.6 min; in the assay filed under Mus musculus [7] it was 2.7 h. Moreover, in the assay on Oryctolagus cuniculus, the Concentration came to 2 µg/mL.
On to `COc1cc(Cc2cnc(N)nc2N)cc(OC)c1OCCCCCCN1C(=O)c2ccccc2C1=O`, for which the inhibition in [8] came to 25%.
On to `COc1cc(Cc2cnc(N)nc2N)cc(OC)c1C`, for which the IC50 at Dihydrofolate reductase [1] was determined as 120 µM.
`COc1cc(COc2c(OC)cc(Cc3cnc(N)nc3N)cc2OC)cc(OC)c1OC`: the IC50 at Dihydrofolate reductase [1] was 15 µM.
For the compound `CCCOc1c(OC)cc(Cc2cnc(N)nc2N)cc1OC`, the IC50 at Dihydrofolate reductase [9] is 250 µM.
